In patent US9567303B2, “Crystal of 5-hydroxy-1H-imidazole-4-carboxamide hydrate and pharmaceutical composition thereof” (FUJIFILM Corporation, priority 2011, dated 2017):

Tests used:
Assay type in all cases: physicochemical
[1] = Observation of the color of the crystals (Test Example 3); settings: crystals as obtained; hydrate
Excerpt: Observation of the color of the crystals obtained in Examples 5 and 8 and Comparative Examples 4 and 5 was made.

[2] = Color difference of the crystal before and after storage, spectrophotometric colorimeter, reflection method (Test Examples 4 and 5); settings: Table 6, stored 2 weeks, air atmosphere, 40° C., relative humidity 75%, double polyethylene bag
Description: As described herein, the color difference of the crystal is measured by reflection method using a spectrocolorimeter.
About 1 g of the test material was added in a storage bag, the storage bag being prepared by inserting one polyethylene bag into another polyethylene bag, each polyethylene bag having a thickness of 0.04 mm, each of the polyethylene bags was sealed, and the test material was stored for 2 weeks in conditions of air atmosphere at a temperature of 40° C. and a relative humidity of 75%. Color change of the crystal before and after the test was evaluated based on color difference.
(§1) Measurement method: Reflection method

[3] = Storage stability test under high temperature and high humidity conditions (Test Example 1); settings: about 0.2 g in glass vial, one week, 60° C., relative humidity 75%; compared to Comparative Example 1
Description: Storage stability test under high temperature and high humidity conditions
As a test material, the crystals obtained from Example 3 and Comparative Example 1 were selected.
Each of the test material (about 0.2 g) was added to a glass vial and stored for one week under the conditions including temperature of 60° C. and relative humidity of 75%.
State of the crystal of Example 3 before starting the test is illustrated in FIG. 4 and state of the crystal of Example 3 after finishing the test is illustrated in FIG. 5. Further, state of the crystal of Comparative Example 1 before starting the test is illustrated in FIG. 6 and state of the crystal of Comparative Example 1 after finishing the test is illustrated in FIG. 7.

[4] = Naked-eye observation of coloration after storage at 60° C. and 75% relative humidity; settings: stored 2 weeks, relative humidity 75%
Description: Compound of Example 9 after it has been stored for 2 weeks under the condition including a temperature of 60° C. and a relative humidity of 75% is illustrated in FIG. 11.

[5] = Hue (H) in the Munsell color system of the crystals (Test Example 6); settings: reflection method, crystals as obtained, hydrate
Excerpt: The Munsell color system is the color system developed by Albert H. Munsell. In the system, color is defined in terms of three attributions, hue, brightness and chroma. Hue (H) represents kinds of colors and, in the Munsell color system, hue is defined by using a total of 10 hues including 5 fundamental hues of red (R), yellow (Y), green (G), blue (B) and purple (P) and 5 intermediate hues of yellow-red (YR), yellow-green (YG), blue-green (BG), blue-purple (BP) and red-purple (RP). In addition, each hue of the 10 hues is further defined by using uniform color scales so that the maximum classification is 10. Hue (H) can be measured by using a measuring device such as a colorimeter or a color-difference meter.
Hue (H) in the Munsell color system of the crystals of Examples 9, 11 to 14 was observed.
Colorimeter: Spectrophotometric colorimeter SE 2000, manufactured by NIPPON DENSHOKU […] CO., LTD.
as §1

## NC(=O)c1nc[nH]c1O [Comparative Example 4, 5-hydroxy-1H-imidazole-4-carboxamide.3/4 hydrate]
[1]
  Color of crystals: Blue

## NC(=O)c1nc[nH]c1O [Comparative Example 5, 5-hydroxy-1H-imidazole-4-carboxamide.3/4 hydrate]
[1]
  Color of crystals: Blue

## NC(=O)c1nc[nH]c1O [Comparative Example 6, 5-hydroxy-1H-imidazole-4-carboxamide]
[2]
  Color difference (ΔE): 25.6

## NC(=O)c1nc[nH]c1O [Comparative Example 7, 5-hydroxy-1H-imidazole-4-carboxamide.3/4 hydrate, reference compound]
[2]; hydrate
  Color difference (ΔE): 8.8

## NC(=O)c1nc[nH]c1O.O [Example 3, 5-hydroxy-1H-imidazole-4-carboxamide hydrate]
[3]
  Coloration and storage stability of the crystal: clearly less coloration and better storage stability

## NC(=O)c1nc[nH]c1O [Example 5, 5-hydroxy-1H-imidazole-4-carboxamide.3/4 hydrate]
[1]
  Color of crystals: Pale yellow

## NC(=O)c1nc[nH]c1O [Example 9, 5-hydroxy-1H-imidazole-4-carboxamide.3/4 hydrate]
[4]
  Coloration observed with a naked eye after storage: no coloration with blue color
[2]; hydrate
  Color difference (ΔE): 2.4
[5]
  Hue (H): 3.1Y

## NC(=O)c1nc[nH]c1O [Example 11, 5-hydroxy-1H-imidazole-4-carboxamide-3/4 hydrate]
[5]
  Hue (H): 3.8Y

## NC(=O)c1nc[nH]c1O [Example 12, 5-hydroxy-1H-imidazole-4-carboxamide.3/4 hydrate]
[5]
  Hue (H): 4.4Y

## NC(=O)c1nc[nH]c1O [Example 13, 5-hydroxy-1H-imidazole-4-carboxamide.3/4 hydrate]
[2]; hydrate
  Color difference (ΔE): 5.1
[5]
  Hue (H): 5.9Y

## NC(=O)c1nc[nH]c1O [Example 14, 5-hydroxy-1H-imidazole-4-carboxamide.3/4 hydrate]
[5]
  Hue (H): 5.9Y
